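Protocol summary: plate cells (96-well), add compound at 5 concentrations, incubate 48 h, interpolate endpoints linearly. Definition used: TGI = concentration required for complete inhibition of growth.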

The first experiment deals with HL-60(TB) leukemia. Kind of experiment: NCI tumour cell line growth inhibition, 48 h.
Turning to `CCOC(=O)c1cc(=C2\CCN(CC(C)CC)C2=S)/c(=C(/O)CC)[nH]1` (stereo unspecified), the TGI is 27.3 µM.

`CCCCc1c(O)nc(Nc2nc3ccccc3[nH]2)[nH]c1=O`: the TGI is greater than 100 µM.

On to `CC1(C)CC2(C)CC1CC2O` (stereo unspecified), for which the TGI was greater than 100 µM.

`N#CC1=C(N)OC2=C(CSc3ccccc32)C1c1ccc(Br)cc1` (stereo unspecified) displayed a TGI of 6.17 µM.

As to `CCC(=O)C(c1ccccc1)c1ccccn1` (stereo unspecified), the TGI is greater than 100 µM.

`CCOC(=O)CCC(NC(=O)c1ccc(OCc2nc3cc(C(F)(F)F)ccc3nc2-c2ccccc2)cc1)C(=O)OCC` (stereo unspecified) yielded a TGI greater than 100 µM.

Compound `c1ccc(C[P+]2(c3ccccc3)c3ccccc3-c3ccccc32)cc1` had a TGI greater than 100 µM.

On to `C=CCN(CC=C)Cn1c(=S)sc2ccccc21`, for which the TGI was determined as 41 µM.

`O=c1[nH]c2nc3ccccc3c(=O)n2/c1=C/c1ccc(O)cc1` registered a TGI greater than 100 µM.

Compound `CCOC(=O)c1c(NC(=O)c2ccccc2)sc2c1CCCC2` showed a TGI greater than 100 µM.

As to `O=c1c2ccccc2[nH]c(=S)n1-c1ccc(N=Nc2cccc3c(O)cccc23)cc1`, the TGI was greater than 100 µM.

As for `CC(=O)NC1C(OCc2ccccc2)OC(CO)C(O)C1OCC(=O)N[C@@H](C)C(=O)N[C@H](CCC(=O)NCCNCCNc1c2ccccc2nc2cccc([N+](=O)[O-])c12)C(N)=O` (stereo partly specified), the TGI is greater than 100 µM.

`O=C1CC(C(O)CO)CC(=O)N1` (stereo unspecified) had a TGI greater than 100 µM.

In the case of `O=C(Cc1nc2ccc(C(=O)c3ccccc3)cc2[nH]c1=O)C(=O)Nc1ccc(Br)cc1`, the TGI was greater than 100 µM.

In turn, `Cc1cccc(N2C(=O)C3ON(C(C(N)=O)c4ccccc4)C(c4c5ccccc5c(Cl)c5ccccc45)C3C2=O)c1C` (stereo unspecified) gave a TGI of 23.3 µM.

On to `c1cc(-c2cnc(-c3ccc4c(c3)CCCO4)o2)ccn1`, for which the TGI stood at 21.9 µM.

On to `CCN(CC)CCn1c2cc3c(cc2c(=O)c2cccnc21)OCCO3`, for which the TGI was greater than 10 µM.

A further experiment concerns MCF7 breast. Kind of experiment: NCI tumour cell line growth inhibition, 48 h.
As for `Cc1ccc2c(c1)nc(N)n[n+]2[O-]`, the TGI is greater than 100 µM.

`COc1ccc2c(c1)c1c(n2CCN2CCOCC2)-c2ccccc2CC1` had a TGI greater than 100 µM.

The compound `Cc1cn(C2C=CC(COP(=O)(OCC3=CC(=O)c4ccccc4C3=O)N(C)CCCCCl)O2)c(=O)[nH]c1=O` (stereo unspecified) yielded a TGI of 20.5 µM.

The compound `CCOC(=O)c1cc(=C2\CCN(CC(C)CC)C2=S)/c(=C(/O)CC)[nH]1` (stereo unspecified) came in with a TGI of 61 µM.

For the compound `CCCCc1c(O)nc(Nc2nc3ccccc3[nH]2)[nH]c1=O`, the TGI is greater than 100 µM.

For `CC1(C)CC2(C)CC1CC2O` (stereo unspecified), the TGI is greater than 100 µM.

`N#CC1=C(N)OC2=C(CSc3ccccc32)C1c1ccc(Br)cc1` (stereo unspecified) came in with a TGI of 13.8 µM.

Compound `CCC(=O)C(c1ccccc1)c1ccccn1` (stereo unspecified) came in with a TGI greater than 100 µM.

`Cc1sc2nc3n(c(=O)c2c1C)N=CN(c1ccccc1)C3` yielded a TGI greater than 100 µM.

Regarding `COC(=O)C1=C(C(=O)OC)C2OC1C1C2C2(C)C(C)=C(C)C1(C)S2=O` (stereo unspecified), the TGI is greater than 45.3 µM.

Consider `CCOC(=O)CCC(NC(=O)c1ccc(OCc2nc3cc(C(F)(F)F)ccc3nc2-c2ccccc2)cc1)C(=O)OCC` (stereo unspecified), for which the TGI amounted to 19.4 µM.

In the case of `O=c1c2c3ccccc3[nH]c2c2cccc3c2n1CCC3`, the TGI is greater than 100 µM.

In turn, `c1ccc([P+](CCNCCNCC[P+](c2ccccc2)(c2ccccc2)c2ccccc2)(c2ccccc2)c2ccccc2)cc1` showed a TGI greater than 100 µM.

As to `c1ccc(C[P+]2(c3ccccc3)c3ccccc3-c3ccccc32)cc1`, the TGI is greater than 100 µM.

With `C=CCN(CC=C)Cn1c(=S)sc2ccccc21`, the TGI is greater than 100 µM.

As for `O=c1[nH]c2nc3ccccc3c(=O)n2/c1=C/c1ccc(O)cc1`, the TGI is greater than 100 µM.

Compound `CCOC(=O)c1c(NC(=O)c2ccccc2)sc2c1CCCC2` showed a TGI greater than 100 µM.

`O=c1c2ccccc2[nH]c(=S)n1-c1ccc(N=Nc2cccc3c(O)cccc23)cc1` displayed a TGI of 35.2 µM.

`CCOc1ccc(N/C(=C(/C(Cl)=C(/Cl)NCCN)[N+](=O)[O-])n2nnc3ccccc32)cc1` had a TGI greater than 100 µM.

Consider `CC(=O)NC1C(OCc2ccccc2)OC(CO)C(O)C1OCC(=O)N[C@@H](C)C(=O)N[C@H](CCC(=O)NCCNCCNc1c2ccccc2nc2cccc([N+](=O)[O-])c12)C(N)=O` (stereo partly specified), for which the TGI is greater than 100 µM.

In turn, `O=C1CC(C(O)CO)CC(=O)N1` (stereo unspecified) displayed a TGI greater than 100 µM.

`C[C@]12OC[C@H](c3ccccc3)N1C(=O)C1[C@H]2CC12SCCS2` (stereo partly specified) gave a TGI greater than 100 µM.

The compound `O=C(Cc1nc2ccc(C(=O)c3ccccc3)cc2[nH]c1=O)C(=O)Nc1ccc(Br)cc1` registered a TGI greater than 100 µM.

In the case of `Cc1cccc(N2C(=O)C3ON(C(C(N)=O)c4ccccc4)C(c4c5ccccc5c(Cl)c5ccccc45)C3C2=O)c1C` (stereo unspecified), the TGI amounted to 17.9 µM.

With `Cc1ccccc1C1OC1C(=O)c1ccccc1N` (stereo unspecified), the TGI is greater than 100 µM.

As to `c1cc(-c2cnc(-c3ccc4c(c3)CCCO4)o2)ccn1`, the TGI worked out at 28.7 µM.

Regarding `CCN(CC)CCn1c2cc3c(cc2c(=O)c2cccnc21)OCCO3`, the TGI was greater than 10 µM.

The test system of another experiment is MDA-MB-231 breast. Kind of experiment: NCI tumour cell line growth inhibition, 48 h.
`Cc1ccc2c(c1)nc(N)n[n+]2[O-]` came in with a TGI greater than 100 µM.

The compound `COc1ccc2c(c1)c1c(n2CCN2CCOCC2)-c2ccccc2CC1` displayed a TGI greater than 100 µM.

On to `Cc1cn(C2C=CC(COP(=O)(OCC3=CC(=O)c4ccccc4C3=O)N(C)CCCCCl)O2)c(=O)[nH]c1=O` (stereo unspecified), for which the TGI came out at 25.5 µM.

`CCOC(=O)c1cc(=C2\CCN(CC(C)CC)C2=S)/c(=C(/O)CC)[nH]1` (stereo unspecified) returned a TGI of 31.8 µM.

In the case of `CCCCc1c(O)nc(Nc2nc3ccccc3[nH]2)[nH]c1=O`, the TGI is greater than 100 µM.

With `CC1(C)CC2(C)CC1CC2O` (stereo unspecified), the TGI was greater than 100 µM.

`N#CC1=C(N)OC2=C(CSc3ccccc32)C1c1ccc(Br)cc1` (stereo unspecified) came in with a TGI of 29.3 µM.

As for `CCC(=O)C(c1ccccc1)c1ccccn1` (stereo unspecified), the TGI is greater than 100 µM.

In turn, `Cc1sc2nc3n(c(=O)c2c1C)N=CN(c1ccccc1)C3` returned a TGI greater than 100 µM.

For `COC(=O)C1=C(C(=O)OC)C2OC1C1C2C2(C)C(C)=C(C)C1(C)S2=O` (stereo unspecified), the TGI is greater than 55.7 µM.

The compound `CCOC(=O)CCC(NC(=O)c1ccc(OCc2nc3cc(C(F)(F)F)ccc3nc2-c2ccccc2)cc1)C(=O)OCC` (stereo unspecified) came in with a TGI greater than 100 µM.

In turn, `O=c1c2c3ccccc3[nH]c2c2cccc3c2n1CCC3` gave a TGI greater than 100 µM.

As for `c1ccc([P+](CCNCCNCC[P+](c2ccccc2)(c2ccccc2)c2ccccc2)(c2ccccc2)c2ccccc2)cc1`, the TGI is greater than 100 µM.

Regarding `c1ccc(C[P+]2(c3ccccc3)c3ccccc3-c3ccccc32)cc1`, the TGI was greater than 100 µM.

As for `C=CCN(CC=C)Cn1c(=S)sc2ccccc21`, the TGI was greater than 100 µM.

`O=c1[nH]c2nc3ccccc3c(=O)n2/c1=C/c1ccc(O)cc1` had a TGI greater than 100 µM.

For `CCOC(=O)c1c(NC(=O)c2ccccc2)sc2c1CCCC2`, the TGI is greater than 100 µM.

For the compound `O=c1c2ccccc2[nH]c(=S)n1-c1ccc(N=Nc2cccc3c(O)cccc23)cc1`, the TGI was greater than 100 µM.

The compound `CCOc1ccc(N/C(=C(/C(Cl)=C(/Cl)NCCN)[N+](=O)[O-])n2nnc3ccccc32)cc1` displayed a TGI greater than 100 µM.

With `CC(=O)NC1C(OCc2ccccc2)OC(CO)C(O)C1OCC(=O)N[C@@H](C)C(=O)N[C@H](CCC(=O)NCCNCCNc1c2ccccc2nc2cccc([N+](=O)[O-])c12)C(N)=O` (stereo partly specified), the TGI was greater than 100 µM.

Take `O=C1CC(C(O)CO)CC(=O)N1` (stereo unspecified): the TGI is greater than 100 µM.

With `C[C@]12OC[C@H](c3ccccc3)N1C(=O)C1[C@H]2CC12SCCS2` (stereo partly specified), the TGI was greater than 100 µM.
